Patent US20240228482A1, “COMPOUNDS, COMPOSITIONS AND METHODS OF TREATING CANCER” (HOTSPOT THERAPEUTICS, INC., priority 2021, published 2024)

Molecular target: T1, CBL-B (Homo sapiens, UniProt Q13191)
T1 construct: GST
Assay: CBL-B TR-FRET IC50 screening (E1/E2 ubiquitination, Biotin-Ubiquitin, Anti GST-Tb donor / Streptavidin-d2 acceptor)
Assay type: biochemical
Details: CBL-B 10 nM final; 11-point titration from 100 uM; binned A-F; read-out: CBL-B TR-FRET activity IC50

T1 sequence (Q13191 whole entry): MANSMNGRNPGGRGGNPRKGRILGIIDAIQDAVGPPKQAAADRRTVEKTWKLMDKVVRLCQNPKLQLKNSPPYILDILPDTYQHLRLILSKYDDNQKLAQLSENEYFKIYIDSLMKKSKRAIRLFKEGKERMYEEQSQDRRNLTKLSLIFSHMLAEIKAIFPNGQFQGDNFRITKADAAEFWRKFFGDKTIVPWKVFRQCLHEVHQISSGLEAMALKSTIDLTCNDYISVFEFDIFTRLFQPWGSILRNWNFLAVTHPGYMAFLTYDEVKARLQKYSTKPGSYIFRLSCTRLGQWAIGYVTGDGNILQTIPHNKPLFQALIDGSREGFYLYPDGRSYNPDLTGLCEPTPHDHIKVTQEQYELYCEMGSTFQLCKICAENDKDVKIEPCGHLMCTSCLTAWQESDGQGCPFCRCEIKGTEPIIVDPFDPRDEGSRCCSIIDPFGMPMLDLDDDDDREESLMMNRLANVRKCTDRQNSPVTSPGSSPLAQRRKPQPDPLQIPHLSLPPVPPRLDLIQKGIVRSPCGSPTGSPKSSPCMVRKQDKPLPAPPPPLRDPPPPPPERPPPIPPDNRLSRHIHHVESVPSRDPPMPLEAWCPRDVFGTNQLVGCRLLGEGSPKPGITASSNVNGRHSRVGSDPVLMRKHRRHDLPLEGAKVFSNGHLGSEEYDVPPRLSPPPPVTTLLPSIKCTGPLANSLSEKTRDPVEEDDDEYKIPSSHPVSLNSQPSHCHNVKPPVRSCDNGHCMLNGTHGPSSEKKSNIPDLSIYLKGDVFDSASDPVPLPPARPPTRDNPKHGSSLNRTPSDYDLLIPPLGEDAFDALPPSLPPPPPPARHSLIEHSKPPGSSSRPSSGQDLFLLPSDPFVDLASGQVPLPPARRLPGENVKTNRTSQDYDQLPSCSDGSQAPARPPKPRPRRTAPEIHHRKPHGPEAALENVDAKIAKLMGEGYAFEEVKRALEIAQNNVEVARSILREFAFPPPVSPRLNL

SMILES | IC50
Cn1cnnc1CC1(c2cccc(-n3cc4c(C(F)(F)F)cc(CN5CCC[C@@H](O)C5)cn4c3=O)c2)COC1 [Compound 126] | < 100 nM
C[C@H]1CN(Cc2cc(C(F)(F)F)c3cn(-c4cccc(C5(Cc6nncn6C)COC5)c4)c(=O)n3c2)CCC1(F)F [Compound 73] | 3000 to 10000 nM
Cn1cnnc1CC1(c2cccc(-n3cc4c(C(F)(F)F)cc(C(C)(C)O)cn4c3=O)c2)COC1 [Compound 101] | 1000 to 3000 nM
C[C@@H](c1cc(C(F)(F)F)c2cn(-c3cccc(C4(Cc5nncn5C)COC4)c3)c(=O)n2c1)N1CCC(F)CC1 [Compound 33] | < 100 nM
Cn1cnnc1CC1(c2cccc(-n3cc4c(C(F)(F)F)cc(CN5CCC(F)CC5)cn4c3=O)c2)COC1 [Compound 13] | < 100 nM
Cn1cnnc1C(F)(F)[C@@](C)(F)c1cccc(-n2cc3c(C(F)(F)F)cc(CN4CC[C@H](F)C4)cn3c2=O)c1 [Compound 28] | 100 to 300 nM
C[C@@H]1CN(Cc2cc(C(F)(F)F)c3cn(-c4cccc(C5(c6nncn6C)CC6(CC6)C5)c4)c(=O)n3c2)CCO1 [Compound 116] | < 100 nM
Cn1cnnc1C1(c2cccc(-n3cc4c(C(F)(F)F)cc(C#N)cn4c3=O)c2)CC2(CC2)C1 [Compound 113] | 301 to 1000 nM
CC1CC(c2cccc(-n3cc4c(C(F)(F)F)cc(Br)cn4c3=O)c2)(c2nncn2C)C1 (single isomer, unassigned) [Compound 150] | < 100 nM
C[C@H]1CCN(Cc2cc(C(F)(F)F)c3cn(-c4cccc([C@H](c5nncn5C)C5CCC5)c4)c(=O)n3c2)C1 [Compound 247] | < 100 nM

The next lines start with the values.

IC50 | SMILES
< 100 nM | C[C@@H]1CCCCN1Cc1cc(C(F)(F)F)c2cn(-c3cccc([C@H](c4nncn4C)C4CCC4)c3)c(=O)n2c1 [Compound 363_P2]
< 100 nM | CN(C)C(=O)C1CN(Cc2cc(C(F)(F)F)c3cn(-c4cccc([C@H](c5nncn5C)C5CCC5)c4)c(=O)n3c2)C1 [Compound 325]
100 to 300 nM | C[C@H]1CCCN(Cc2cc(C(F)(F)F)c3cn(-c4cccc([C@@H](CC5CCC5)c5nncn5C)c4)c(=O)n3c2)C1 [Compound 352_P2]

Same assay, conditions: second part of Table 2 (head 'Patent Cmpd No / Updated Activity'); same CBL-B TR-FRET IC50 bins A-F; read-out: Updated Activity

IC50 | SMILES
> 10000 nM | COCC(COC)[C@H](c1cccc(-n2cc3c(C(F)(F)F)cc(CN4CCC[C@H](C)C4)cn3c2=O)c1)c1nncn1C (single isomer, unassigned) [Compound 410]
< 100 nM | C[C@@H](c1cc(C(F)(F)F)c2cn(-c3cccc([C@H](c4nncn4C)C4CCC4)c3)c(=O)n2c1)N1CC[C@@H](F)C1 (single isomer, unassigned) [Compound 501]
> 10000 nM | Cn1cnnc1[C@@H](c1cc(-c2cnn[nH]2)cc(-n2cc3c(C(F)(F)F)cccn3c2=O)c1)C1CCC1 [Compound 536]
< 100 nM | COC(=O)N(C)Cc1cc(C(F)(F)F)c2cn(-c3cccc([C@H](c4nncn4C)C4CCC4)c3)c(=O)n2c1 [Compound 469]
< 100 nM | Cn1cnnc1[C@@H](c1cc(C#N)cc(-n2cc3c(C(F)(F)F)cc(CN4CCC(C)(F)CC4)cn3c2=O)c1)C1CCC1 (single isomer, unassigned) [Compound 508]
1000 to 3000 nM | COC1([C@H](c2cccc(-n3cc4c(C(F)(F)F)cc(CN5CCC[C@H](C)C5)cn4c3=O)c2)c2nncn2C)CCC1 (single isomer, unassigned) [Compound 578]
> 10000 nM | Cn1cnnc1[C@@H](c1cc(C#N)cc(-n2cc3c(C(F)(F)F)cc(CN4CCC5(CC5)C4)cn3c2=O)c1)C1CCC1 (single isomer, unassigned) [Compound 496]
> 10000 nM | COCC[C@@H](c1cccc(-n2cc3c(C(F)(F)F)cc(CN4CCC[C@H](C)C4)cn3c2=O)c1)c1nncn1C (single isomer, unassigned) [Compound 400]
< 100 nM | CN1CCC2(CCN(Cc3cc(C(F)(F)F)c4cn(-c5cccc([C@H](c6nncn6C)C6CCC6)c5)c(=O)n4c3)CC2)C1=O [Compound 523]
< 100 nM | CC(=O)N1CCC(c2cc(C(F)(F)F)c3cn(-c4cccc([C@H](c5nncn5C)C5CCC5)c4)c(=O)n3c2)CC1 [Compound 398]
